Bridges are numbered along the chain shown (N, C = ends). Where no end group is shown, it is not given here.
Experiments:
[1] = aggregation behavior in solution by Dynamic Light Scattering (DLS); format: physicochemical; settings: TGF-β1 mimetic peptides in solution
[2] = system: TGF-β1 receptor on A549 cells; assay: ELISA on cells of the A549 line using anti-TGF-β1 antibody; format: binding, human
Description: The peptides described in this patent application were selected using the Phage Display (PD) methodology. The selection was performed by evaluating the ability of said peptides to recognize the TGF-β1 receptor on A549 cells, using an ELISA assay. MaxiSorp 96-well microtiter plates were coated with 1×10^6 cells diluted in PBS and incubated overnight at 4° C. Cells were blocked with 3% PBS-BSA for 1 h at 37° C., washed once with PBS and incubated with […] of each TGF-β1 mimetic peptide or 5 ng/ml of recombinant TGF-β1 for 1 h at 37° C. After washing, the plate was incubated for 1 h at 37° C. with anti-TGF-β1 antibody. The plate was washed and incubated with HRP-labeled anti-human IgG antibody for 1 h at 37° C. After washing, TMB substrate solution was added to the plate; the reaction was stopped by adding the 2N H2SO4 solution and read at 492 nm in a microplate reader.
To investigate whether the synthesized peptides could bind to cell receptors, an ELISA assay was performed on cells of the A549 line using commercial anti-TGF-β1 antibody.

[3] = system: TFGβRII/SMAD-dependent pathway; assay: HEK-blue-TGFβ reporter cells, SEAP production; format: cell-based; settings: tested at 0.1, 1, 10 and 100 μM
Description: After 12 hours of stimulation (FIG. 4A), all peptides were able to bind to the receptor.
The assay was performed in such a way that approximately 2.5×10^4 cells/well (100 μL) were treated with 100 μL of all synthetic peptides at different concentrations (100 μM, 10 μM, 1 μM and 0.1 μM) while rTGF-β1 ([…]) at 100 ng/ml was used as a positive control. After incubating the cells for 12, 24 and 48 hours at 37° C. in 5% CO2, […] of supernatant was transferred to a Greiner plate to which […] of Quanti-blue solution was added. The plate was incubated for 1 hour at 37° C. in 5% CO2 and the production of SEAP (secreted alkaline phosphatase) was detected at 655 nm. All tests were performed in triplicate.

NFkB pathway = assay: NFkB expression in Jurkat cells, luciferase (TGF-β1 mimetic peptides); format: cell-based, human; settings: cells pretreated with TNF-α, then peptide; 24 hours
Description: Two different cell treatments were performed using Jurkat cells to analyze NFkB expression after 12, 24 and 48 hours. In the first test, Jurkat cells were treated only with peptides (no pathway activating molecule) at different concentrations to analyze the ability of each peptide to induce NFkB expression (Figure not shown). None of the tested concentrations induced any type of pathway activation.
The assay was carried out in such a way that a total of 3×10^5 cells/well ([…]) was pretreated with […] of a composition comprising one of the synthetic peptides in concentrations of 100 μM, 10 μM, 1 μM, and 0.1 μM for 1 hour at 37° C. in 5% CO2, followed by stimulation with TNF-α (200 ng/ml) for 12, 24 and 48 hours. The same stimuli were applied to cells pretreated with TNF-α (200 ng/ml) for 1 hour at 37° C. in 5% CO2 followed by stimulation with peptides at 100 μM, 10 μM, 1 μM and 0.1 μM for 12, 24 and 48 hours. Then, […] of supernatant was transferred to a white plate and Quanti-Luc reagent was used to measure the luciferase product. As a control, the peptides were tested at the same concentrations, without any pathway activating molecule, to investigate whether they could activate the NFkB pathway. TNF-α (200 ng/mL) was used as a positive control and rIL-10 (0.4 ng/mL) as a negative control. […].

Substance	hydrodynamic radius [1] [nm]	recognition of receptor-bound peptide by anti-TGF-β1 antibody compared to recombinant TGF-β1 [2]	concentrations with statistically significant activation of the SMAD-dependent pathway (SEAP) ([3]; 12 hours) [µM]	concentrations with significant maintained activation of the SMAD-dependent pathway (SEAP) ([3]; 24 hours) [µM]	concentrations with significant maintained activation of the SMAD-dependent pathway (SEAP) ([3]; 48 hours)	concentration with statistically significant reduction of the NFKB pathway (NFkB pathway) [µM]
Pep 1-TGF-β1: synthetic peptide with affinity to the TGF-β receptor, SEQ ID N 01, with disulfide bridges (HACFLPASGLCGGGS; disulfide 3-11)	0.58	in the same way that the antibody recognized the TGF-β1 recombinant molecule				
Pep 3-TGF-β1: synthetic peptide with affinity to the TGF-β receptor, SEQ ID N 03, free of disulfide bridges (HASESPLKRQSGGGS)		in the same way that the antibody recognized the TGF-β1 recombinant molecule				
Pep 4-TGF-β1: synthetic peptide with affinity to the TGF-β receptor, SEQ ID N 04, with disulfide bridges (HACKLQRSEPCGGGS; disulfide 3-11 (inferred))		recognized as statistically different				
Pep 8-TGF-β1: synthetic peptide with affinity to the TGF-β receptor, SEQ ID N 08, free of disulfide bridges (HASTLPSNTHSGGGS)		recognized as statistically different	1	1	0.1 μM, 1 μM and 10 μM	0.1
